Laboratory results reported in patent US20060100226A1, “2-Thiopyrimidinones as therapeutic agents” (priority 2004, published 2006).

Target: T1, murine MEKK2 (mMEKK2) (Mus musculus, UniProt Q61083)
T1 sequence (Q61083 1-619): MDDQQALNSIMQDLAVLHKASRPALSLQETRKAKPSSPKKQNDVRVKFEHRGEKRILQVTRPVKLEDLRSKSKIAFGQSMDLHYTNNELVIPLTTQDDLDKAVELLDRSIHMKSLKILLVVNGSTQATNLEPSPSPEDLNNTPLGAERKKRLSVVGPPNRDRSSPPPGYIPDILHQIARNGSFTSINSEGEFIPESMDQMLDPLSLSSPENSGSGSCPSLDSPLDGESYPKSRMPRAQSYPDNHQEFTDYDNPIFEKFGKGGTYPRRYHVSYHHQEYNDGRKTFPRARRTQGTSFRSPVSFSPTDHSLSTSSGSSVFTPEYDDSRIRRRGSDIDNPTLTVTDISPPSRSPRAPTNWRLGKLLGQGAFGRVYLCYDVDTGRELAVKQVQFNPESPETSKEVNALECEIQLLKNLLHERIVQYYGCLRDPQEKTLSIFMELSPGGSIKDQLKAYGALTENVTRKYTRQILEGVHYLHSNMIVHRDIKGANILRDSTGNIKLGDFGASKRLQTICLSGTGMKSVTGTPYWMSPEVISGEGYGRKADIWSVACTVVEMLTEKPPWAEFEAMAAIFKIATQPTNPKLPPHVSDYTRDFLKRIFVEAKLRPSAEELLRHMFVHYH
Assay: TR-FRET kinase assay (mMEKK2/MBP)
Type: biochemical
Conditions: substrate biotin MBP, 60 minutes at room temperature
Experimental: In one approach, MEKK2 inhibitory activity of compounds of the invention can be assessed using the time-resolved Fluorescence Resonance Energy Transfer (TR-FRET) assay detailed in Example 5. In this assay, the excitation energy of one fluorescent molecule (the donor) is transferred by a resonance mechanism to a nearby second fluorescent molecule (the acceptor), which then releases its fluorescent energy through fluorescent emission. This fluorescent energy is measured using a time-resolved fluorescence measurement protocol (LANCE high count 615/665); excitation occurred with 1,000 flashes at 325 nm, measurement was delayed by 100 μs, and data were acquired for 50 μs at 615 and 665 nm.
A TR-FRET kinase assay was used to screen potential inhibitors of MEKK2. The assay was performed as follows: Compounds to be tested were weighed and solubilized in DMSO (Sigma) to a stock concentration of 10 mM. Serial dilutions starting from 1 mM were prepared with additional DMSO. These dilutions were further diluted to 250 μM in kinase reaction buffer [20 mM Hepes pH 7.5, 5 mM MgCl2, 1 mM DTT (Dithiothreitol-Sigma), 1 mM NaVO4 (sodium vanadate-Sigma). A 25 μl aliquot of this solution was transferred to a black 96-well nonbinding surface microplate (Fisher). A stock aliquot containing […] of murine MEKK2 (mMEKK2) was diluted in the kinase reaction buffer and incubated with the compounds on the microplate for 10 minutes. A 25 μl aliquot of a 138 ng solution of biotin MBP (myelin basic protein—Upstate Biotechnology) was added to the reaction followed by 25 ul of a 25 ng solution of anti-phospho MBP antibody (Upstate Biotechnology) diluted in kinase reaction buffer. Finally an aliquot (50 μl) of a 5 uM solution of ATP (adenosine triphosphate) was added and the reaction was allowed to proceed for 60 minutes at room temperature. The reaction was stopped by the addition of 50 μL of a 12.5 ng solution of europium labeled anti-mouse IgG (Perkin Elmer) and 45 ng of Cy5 labeled streptavidin (Jackson Immunoresearch) in termination buffer (20 mM Hepes pH 7.5, 100 mM EDTA; Sigma). The assay was allowed to equilibrate for 45 minutes before placing the plate on the Victor™ plate reader. The plate was read using the 615/665 LANCE protocol.

Row | IC50 [µM] | Structure (SMILES)
1 | < 1 | COc1cccc(-c2nc(SCc3ccc(NC(=O)Nc4cccc5nsnc45)cc3)[nH]c(=O)c2C#N)c1 [Example 3aa]
2 | < 5 | COc1cccc(-c2nc(SCc3cccc(NC(=O)Nc4cc(F)cc(F)c4)c3)[nH]c(=O)c2C#N)c1 [Example 3b, 1-{3-[5-Cyano-4-(3-methoxy-phenyl)-6-oxo-1,6-dihydro-pyrimidin-2-ylsulfanylmethyl]-phenyl}-3-(3,5-difluoro-phenyl)-urea]
3 | > 40 | COc1cccc(-c2nc(SCc3ccc(NC(=O)NC4CCNCC4)cc3)[nH]c(=O)c2C#N)c1 [Example 3bb]
4 | < 5 | COc1cccc(-c2nc(SCc3cccc(NC(=O)NCc4ccccc4)c3)[nH]c(=O)c2C#N)c1 [Example 3c]
5 | < 5 | COc1cccc(-c2nc(SCc3cccc(NC(=O)Nc4ccccc4)c3)[nH]c(=O)c2C#N)c1 [Example 3d]
6 | < 5 | COc1cccc(-c2nc(SCc3cccc(NC(=O)NCCc4cccs4)c3)[nH]c(=O)c2C#N)c1 [Example 3e]
7 | < 5 | COc1cccc(-c2nc(SCc3cccc(NC(=O)NC4CCCC4)c3)[nH]c(=O)c2C#N)c1 [Example 3f]
8 | < 10 | COc1cccc(-c2nc(SCc3cccc(NC(=O)NCc4ccco4)c3)[nH]c(=O)c2C#N)c1 [Example 3g]
9 | < 40 | COc1cccc(-c2nc(SCc3cccc(NC(=O)NCc4cc(OC)c(OC)c(OC)c4)c3)[nH]c(=O)c2C#N)c1 [Example 3i]
10 | < 10 | COc1cccc(-c2nc(SCc3cccc(NC(=O)Nc4ccc5c(c4)OCCO5)c3)[nH]c(=O)c2C#N)c1 [Example 3j]
11 | < 10 | COc1cccc(-c2nc(SCc3cccc(NC(=O)NCCc4ccc5c(c4)OCO5)c3)[nH]c(=O)c2C#N)c1 [Example 3k]
12 | < 10 | COc1cccc(-c2nc(SCc3ccc(NC(=O)NCc4ccccc4)cc3)[nH]c(=O)c2C#N)c1 [Example 3l]
13 | < 5 | COc1cccc(-c2nc(SCc3ccc(NC(=O)Nc4ccccc4)cc3)[nH]c(=O)c2C#N)c1 [Example 3m]
14 | < 20 | COc1cccc(-c2nc(SCc3ccc(NC(=O)Nc4cccc(C#N)c4)cc3)[nH]c(=O)c2C#N)c1 [Example 3o]
15 | < 20 | COc1cccc(-c2nc(SCc3ccc(NC(=O)Nc4ccc5c(c4)OCO5)cc3)[nH]c(=O)c2C#N)c1 [Example 3p]
16 | > 40 | COc1cccc(-c2nc(SCc3ccc(NC(=O)Nc4c(Cl)cccc4Cl)cc3)[nH]c(=O)c2C#N)c1 [Example 3q]
17 | < 5 | COc1cccc(-c2nc(SCc3ccc(NC(=O)Nc4cc(F)cc5c4OCOC5)cc3)[nH]c(=O)c2C#N)c1 [Example 3r]
18 | < 5 | COc1cccc(-c2nc(SCc3ccc(NC(=O)Nc4ccc(Cl)c(C(F)(F)F)c4)cc3)[nH]c(=O)c2C#N)c1 [Example 3s]

Row | IC50 [µM] | Structure (SMILES)
19 | < 5 | COc1cccc(-c2nc(SCc3ccc(NC(=O)Nc4cc(C(F)(F)F)ccc4Cl)cc3)[nH]c(=O)c2C#N)c1 [Example 3t]
20 | < 10 | COc1cccc(-c2nc(SCc3ccc(NC(=O)Nc4cc([N+](=O)[O-])ccc4F)cc3)[nH]c(=O)c2C#N)c1 [Example 3u]
21 | < 1 | COc1cccc(-c2nc(SCc3ccc(NC(=O)Nc4cccc(Oc5ccccc5)c4)cc3)[nH]c(=O)c2C#N)c1 [Example 3v]
22 | < 5 | COc1cccc(-c2nc(SCc3ccc(NC(=O)NCCc4cccs4)cc3)[nH]c(=O)c2C#N)c1 [Example 3w]
23 | < 1 | COc1cccc(-c2nc(SCc3ccc(NC(=O)Nc4cc(C(F)(F)F)cc(C(F)(F)F)c4)cc3)[nH]c(=O)c2C#N)c1 [Example 3x]
24 | < 1 | COc1cccc(-c2nc(SCc3ccc(NC(=O)NC4CCCCC4)cc3)[nH]c(=O)c2C#N)c1 [Example 3y]
25 | < 1 | COc1cccc(-c2nc(SCc3ccc(NC(=O)NC(c4ccccc4)c4ccccc4)cc3)[nH]c(=O)c2C#N)c1 [Example 3z]
26 | > 40 | COc1cccc(-c2nc(SCc3cccc(NCc4ccc(OCCN(C)c5ccncc5)cc4)c3)[nH]c(=O)c2C#N)c1 [Example 4b]
27 | > 40 | N#Cc1c(-c2cccc(Cn3cncn3)c2)nc(SCc2cccc(NC(=O)c3ccc(Cl)c(Cl)c3)c2)[nH]c1=O [Example 4bb]
28 | > 40 | COc1cccc(-c2nc(SCc3cccc(NCC4CCN(c5ccncc5)CC4)c3)[nH]c(=O)c2C#N)c1 [Example 4c]
29 | > 40 | N#Cc1c(-c2cccc(Cn3ccnc3)c2)nc(SCc2cccc(NC(=O)c3ccc(Cl)c(Cl)c3)c2)[nH]c1=O [Example 4cc]
30 | > 40 | CCc1nc(C)c(CNc2cccc(CSc3nc(-c4cccc(OC)c4)c(C#N)c(=O)[nH]3)c2)[nH]1 [Example 4e]
31 | < 5 | COc1cccc(-c2nc(SCc3cc(NCc4ccc(Cl)c(Cl)c4)ccc3O)[nH]c(=O)c2C#N)c1 [Example 4f]
32 | < 5 | COc1cccc(-c2nc(SCc3cc(NCc4ccc(Cl)c(Cl)c4)cc([N+](=O)[O-])c3)[nH]c(=O)c2C#N)c1 [Example 4g]
33 | > 40 | COc1cccc(-c2nc(SCCCCCn3cnc4c(NCc5ccccc5)ncnc43)[nH]c(=O)c2C#N)c1 [Example 4h]
34 | > 40 | COc1cccc(-c2nc(SCCCn3cnc4c(NCc5ccccc5)ncnc43)[nH]c(=O)c2C#N)c1 [Example 4i]
35 | > 40 | N#Cc1c(-c2cccc(C(=O)O)c2)nc(SCCCn2cnc3c(NCc4ccccc4)ncnc32)[nH]c1=O [Example 4j]

The next lines start with the compound.

Row | Structure (SMILES) | IC50 [µM]
36 | COc1cccc(-c2nc(SCc3ccc(NC(=O)c4ccc(F)c(C(F)(F)F)c4)cc3)[nH]c(=O)c2C#N)c1 [Example 2rr] | < 5
37 | COc1cccc(-c2nc(SCc3cccc(NC(=O)c4sccc4C)c3)[nH]c(=O)c2C#N)c1 [Example 2s] | < 10
38 | COc1cccc(-c2nc(SCc3ccc(NC(=O)c4cccc(C(F)(F)F)c4)cc3)[nH]c(=O)c2C#N)c1 [Example 2ss] | < 5
39 | COc1cccc(-c2nc(SCc3cccc(NC(=O)c4cnn(C)c4Cl)c3)[nH]c(=O)c2C#N)c1 [Example 2t] | < 40
40 | COc1cccc(-c2nc(SCc3ccc(NC(=O)c4ccc(Cl)c(Cl)c4)cc3)[nH]c(=O)c2C#N)c1 [Example 2tt] | < 1
41 | COc1cccc(-c2nc(SCc3cccc(NC(=O)c4ccc(OC)cc4OC)c3)[nH]c(=O)c2C#N)c1 [Example 2u] | < 20
42 | COc1cccc(-c2nc(SCc3ccc(NC(=O)c4cc(C)nn4C(C)(C)C)cc3)[nH]c(=O)c2C#N)c1 [Example 2uu] | < 20
43 | COc1cccc(-c2nc(SCc3cccc(NC(=O)c4csc(Cl)c4OC)c3)[nH]c(=O)c2C#N)c1 [Example 2v] | < 20
44 | COc1cccc(-c2nc(SCc3ccc(NC(=O)Cc4ccccc4)cc3)[nH]c(=O)c2C#N)c1 [Example 2vv] | < 20
45 | COc1cccc(-c2nc(SCc3cccc(NC(=O)c4cc(C)nn4C(C)(C)C)c3)[nH]c(=O)c2C#N)c1 [Example 2w] | < 40
46 | COc1cccc(-c2nc(SCc3ccc(NC(=O)c4c(F)cc(F)cc4F)cc3)[nH]c(=O)c2C#N)c1 [Example 2ww] | < 20
47 | COc1cccc(-c2nc(SCc3cccc(NC(=O)c4cc(Cl)nc(OC)c4)c3)[nH]c(=O)c2C#N)c1 [Example 2x] | < 10
48 | COc1cccc(-c2nc(SCc3ccc(NC(=O)C4CCN(c5nccc(C(F)(F)F)n5)CC4)cc3)[nH]c(=O)c2C#N)c1 [Example 2xx] | > 40
49 | COc1cccc(-c2nc(SCc3ccc(NC(=O)c4ccc(Cl)nc4)cc3)[nH]c(=O)c2C#N)c1 [Example 2yy] | < 20
50 | COc1cccc(-c2nc(SCc3ccc(NC(=O)c4cccnc4Oc4ccc(Cl)cc4)cc3)[nH]c(=O)c2C#N)c1 [Example 2zz] | > 40
